Measurements: patent US10392389B2, “Heterocyclic compounds for the inhibition of PASK” (BioEnergenix, LLC, priority 2012, dated 2019)

Columns and labels:
[1] = target: T1, CK2a2 (NP_001887; human full-length protein, GST tagged) (Homo sapiens, UniProt P19784); experiment: Biochemical Assay for CK2 Activity; settings: 33P-ATP radiochemical assay, CK2 sub [RRRDDDSDDD]
T1 construct: human full-length protein, GST tagged; GST; host or cells: insect cells
Method: Biochemical Assay for CK2 Activity
(§1) Purified CK2a2 (NP_001887; human full-length protein, GST tagged) from insect cells (final concentration 1.2 nM) is added to freshly prepared Base Reaction Buffer containing 20 mM Hepes (pH 7.5), 10 mM MgCl2, 1 mM EGTA, 0.02% Brij35, 0.02 mg/ml BSA, 0.1 mM Na3VO4, 2 mM DTT, 1% DMSO and CK2 sub [RRRDDDSDDD] (20 μM final). Test compounds in DMSO are then added and the mixture, followed by delivery of ^33P-ATP (specific activity 0.01 μCi/μl final) to initiate the reaction. The kinase reaction is incubated for 120 min at room temperature. The entire reaction mixture is washed through onto a P81 Phosphocellulose paper and washed three times for 10 minutes in 75 mM phosphoric acid and once in methanol prior to drying and scintillation counting.

[2] = target: T2, PASK (Invitrogen) (Homo sapiens, UniProt Q96RG2); experiment: PAS Kinase FRET Assay; assay type: biochemical; settings: PAS kinase TR-FRET assay (665 nm/615 nm); read-out: IC50 Kinase Domain
T2 construct: IC50 Kinase Domain; purchased Invitrogen
T2 sequence (Q96RG2 999-1251 limits assumed): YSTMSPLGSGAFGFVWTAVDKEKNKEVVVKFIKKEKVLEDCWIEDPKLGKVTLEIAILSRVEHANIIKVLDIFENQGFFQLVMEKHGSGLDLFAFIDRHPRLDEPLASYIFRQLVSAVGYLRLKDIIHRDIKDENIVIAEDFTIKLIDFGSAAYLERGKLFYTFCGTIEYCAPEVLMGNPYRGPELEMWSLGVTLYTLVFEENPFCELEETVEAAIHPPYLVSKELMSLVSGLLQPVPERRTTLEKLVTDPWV
Procedure, shortened: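 PASK phosphorylates a ULight-peptide with ATP in 50 mM HEPES, 10 mM MgCl2, 1 mM EGTA, 0.01% Tween-20, 2 mM DTT for 2 h at 25° C in the dark. Compounds are added as 4× serial dilutions (top 12×10^−5 M at 4×). After stopping, an Eu anti-phospho-substrate antibody is added for 1 h and TR-FRET is read at 665/615 nm.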

[3] = target: T3, PASK (UniProt #Q96RG2; human recombinant N-terminal GST tagged construct, residues 879-1323) (Homo sapiens, UniProt Q96RG2); experiment: PASK ATP Radiochemical Assay; assay type: biochemical; settings: 33P-ATP, Myelin Basic Protein substrate, read-out: IC50 Kinase Domain
T3 construct: N-terminal GST tagged construct, residues 879-1323; GST (N); host or cells: insect cells
T3 sequence (Q96RG2 879-1323, stated change not applied): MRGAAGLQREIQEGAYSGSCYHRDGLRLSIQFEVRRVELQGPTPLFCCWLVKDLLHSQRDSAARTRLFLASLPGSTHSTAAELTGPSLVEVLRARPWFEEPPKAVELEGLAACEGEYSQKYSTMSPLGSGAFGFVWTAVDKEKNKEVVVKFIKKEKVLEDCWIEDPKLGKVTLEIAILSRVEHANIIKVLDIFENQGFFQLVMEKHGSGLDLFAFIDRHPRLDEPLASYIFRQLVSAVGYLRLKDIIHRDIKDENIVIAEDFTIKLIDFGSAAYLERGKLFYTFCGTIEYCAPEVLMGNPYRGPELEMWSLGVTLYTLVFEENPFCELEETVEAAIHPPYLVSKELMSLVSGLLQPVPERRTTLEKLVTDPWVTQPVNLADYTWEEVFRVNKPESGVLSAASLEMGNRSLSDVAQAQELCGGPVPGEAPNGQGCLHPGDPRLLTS
Method: Biochemical Assay for hPASK Activity
PASK ATP Radiochemical Assay
as §1, with “PASK (UniProt #Q96RG2;” for “CK2a2 (NP_001887;”, “recombinant N-terminal” for “full-length protein,”, “tagged construct, residues 879-1323)” for “tagged)”, “5” for “1.2”, “HEPES” for “Hepes”, “Myelin Basic Protein” for “CK2 sub [RRRDDDSDDD]”

[4] = target: T4, PIM1 (NP_002639; human full-length protein, 6×His tagged) (Homo sapiens, UniProt P11309); experiment: Biochemical Assay for PIM1 Activity; settings: 33P-ATP radiochemical assay, S6K/Rsk2 peptide 2 substrate
T4 construct: human full-length protein, 6×His tagged; 6xHis; host or cells: insect cells
T4 sequence (P11309 whole entry): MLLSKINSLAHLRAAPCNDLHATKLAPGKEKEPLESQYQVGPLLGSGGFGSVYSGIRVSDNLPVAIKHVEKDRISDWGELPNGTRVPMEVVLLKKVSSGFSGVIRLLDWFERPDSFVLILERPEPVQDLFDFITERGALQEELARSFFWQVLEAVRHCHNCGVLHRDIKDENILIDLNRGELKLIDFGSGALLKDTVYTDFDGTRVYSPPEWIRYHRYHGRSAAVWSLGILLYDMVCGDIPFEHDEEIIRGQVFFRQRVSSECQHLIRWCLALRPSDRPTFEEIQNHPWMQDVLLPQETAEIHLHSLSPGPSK
Method: Biochemical Assay for PIM1 Activity
as §1, with “PIM1 (NP_002639;” for “CK2a2 (NP_001887;”, “6×His” for “GST”, “1.0” for “1.2”, “substrate S6K/Rsk2 peptide 2 [KKRNRTLTK]” for “CK2 sub [RRRDDDSDDD]”, “10” for “0.01”

T1 sequence (P19784 whole entry): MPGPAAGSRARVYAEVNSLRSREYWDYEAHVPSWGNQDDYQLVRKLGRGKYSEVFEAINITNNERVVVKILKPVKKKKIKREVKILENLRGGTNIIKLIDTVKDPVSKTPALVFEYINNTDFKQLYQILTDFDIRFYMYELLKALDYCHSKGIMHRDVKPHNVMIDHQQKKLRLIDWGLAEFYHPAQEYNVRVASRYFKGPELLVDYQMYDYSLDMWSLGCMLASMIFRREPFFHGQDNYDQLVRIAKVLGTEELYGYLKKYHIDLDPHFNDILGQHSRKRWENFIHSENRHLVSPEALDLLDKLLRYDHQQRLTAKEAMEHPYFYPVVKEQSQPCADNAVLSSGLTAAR

Row | IC50 [1] | IC50 [2] | IC50 [3] | IC50 [4] | Structure (SMILES)
1 | ≤ 10 µM | ≤ 10 µM | ≤ 10 µM | ≤ 10 µM | Cc1nn2c(=O)cc(-c3ccc4c(c3)OCO4)[nH]c2c1-c1ncco1 [Example 2, 5-(2H-1,3-benzodioxol-5-yl)-2-methyl-3-(1,3-oxazol-2-yl)-4H,7H-pyrazolo[1,5-a]pyrimidin-7-one]
2 | ≤ 10 µM | ≤ 10 µM | ≤ 10 µM | ≤ 10 µM | Cc1cnc(-c2cnn3c(=O)cc(-c4ccc5c(c4)OCO5)[nH]c23)o1 [Example 3, 5-(2H-1,3-benzodioxol-5-yl)-3-(5-methyl-1,3-oxazol-2-yl)-4H,7H-pyrazolo[1,5-a]pyrimidin-7-one]
3 | ≤ 10 µM | ≤ 10 µM | ≤ 10 µM | ≤ 10 µM | Cc1coc(-c2cnn3c(=O)cc(-c4ccc5c(c4)OCO5)[nH]c23)n1 [Example 4, 5-(2H-1,3-benzodioxol-5-yl)-3-(4-methyl-1,3-oxazol-2-yl)-4H,7H-pyrazolo[1,5-a]pyrimidin-7-one]
4 | ≤ 10 µM | ≤ 10 µM | ≤ 10 µM | ≤ 10 µM | CCc1coc(-c2cnn3c(=O)cc(-c4ccc5c(c4)OCO5)[nH]c23)n1 [Example 16, 5-(2H-1,3-benzodioxol-5-yl)-3-(4-ethyl-1,3-oxazol-2-yl)-4H,7H-pyrazolo[1,5-a]pyrimidin-7-one]
5 | ≤ 10 µM | ≤ 10 µM | ≤ 10 µM | ≤ 10 µM | Cc1cnc(-c2cnn3c(=O)cc(-c4ccc5[nH]ncc5c4)[nH]c23)o1 [Example 24, 5-(1H-indazol-5-yl)-3-(5-methyloxazol-2-yl)pyrazolo[1,5-a]pyrimidin-7(4H)-one]
6 | ≤ 10 µM | ≤ 10 µM | ≤ 10 µM | ≤ 10 µM | CCn1ncc2cc(-c3cc(=O)n4ncc(-c5nc(C)co5)c4[nH]3)ccc21 [Example 13, 5-(1-Ethyl-1H-indazol-5-yl)-3-(4-methyl-1,3-oxazol-2-yl)-4H,7H-pyrazolo[1,5-a]pyrimidin-7-one]
7 | ≤ 10 µM | ≤ 10 µM | ≤ 10 µM | ≤ 10 µM | CCc1coc(-c2cnn3c(=O)cc(-c4ccc5[nH]nnc5c4)[nH]c23)n1 [Example 15, 5-(1H-1,2,3-benzotriazol-5-yl)-3-(4-ethyl-1,3-oxazol-2-yl)-4H,7H-pyrazolo[1,5-a]pyrimidin-7-one]

The remaining lines, values behind:

Row | Structure (SMILES) | IC50 [1] | IC50 [2] | IC50 [3] | IC50 [4]
8 | CCn1nccc1-c1cnn2c(=O)cc(-c3ccc(Cl)c(Cl)c3)[nH]c12 [Example 95, 5-(3,4-dichlorophenyl)-3-(1-ethyl-1H-pyrazol-5-yl)pyrazolo[1,5-a]pyrimidin-7(4H)-one] | ≤ 10 µM | ≤ 10 µM | ≤ 10 µM | ≤ 10 µM
9 | COc1cc(-c2cc(=O)n3ncc(-c4cc(C)n[nH]4)c3[nH]2)ccc1Cl [Example 69, 5-(4-chloro-3-methoxyphenyl)-3-(3-methyl-1H-pyrazol-5-yl)pyrazolo[1,5-a]pyrimidin-7(4H)-one] | ≤ 10 µM | ≤ 10 µM | ≤ 10 µM | ≤ 10 µM
10 | COc1cc(-c2cc(=O)n3ncc(-c4ccnn4C)c3[nH]2)ccc1F [Example 79, 5-(4-fluoro-3-methoxyphenyl)-3-(1-methyl-1H-pyrazol-5-yl)pyrazolo[1,5-a]pyrimidin-7(4H)-one] | ≤ 10 µM | ≤ 10 µM | ≤ 10 µM | ≤ 10 µM
11 | CCn1ncc2cc(-c3cc(=O)n4ncc(-c5cc(C)no5)c4[nH]3)ccc21 [Example 86, 5-(1-ethyl-1H-indazol-5-yl)-3-(3-methylisoxazol-5-yl)pyrazolo[1,5-a]pyrimidin-7(4H)-one] | ≤ 10 µM | ≤ 10 µM | ≤ 10 µM | ≤ 10 µM
12 | Cn1ccc(-c2cnn3c(=O)cc(-c4ccc(Cl)c(OCC(F)(F)F)c4)[nH]c23)n1 [Example 96, 5-(4-chloro-3-(2,2,2-trifluoroethoxy)phenyl)-3-(1-methyl-1H-pyrazol-3-yl)pyrazolo[1,5-a]pyrimidin-7(4H)-one] | > 10 µM | ≤ 10 µM | ≤ 10 µM | ≤ 10 µM
13 | CCn1ncc2cc(-c3cc(=O)n4ncc(-c5oncc5C)c4[nH]3)ccc21 [Example 87, 5-(1-ethyl-1H-indazol-5-yl)-3-(4-methyl-1,2-oxazol-5-yl)-4H,7H-pyrazolo[1,5-a]pyrimidin-7-one] | ≤ 10 µM | ≤ 10 µM | ≤ 10 µM | ≤ 10 µM
14 | COc1cc(-c2cc(=O)n3ncc(-c4ncco4)c3[nH]2)ccc1Cl [Example 19, 5-(4-chloro-3-methoxyphenyl)-3-(1,3-oxazol-2-yl)-4H,7H-pyrazolo[1,5-a]pyrimidin-7-one] | ≤ 10 µM | ≤ 10 µM | ≤ 10 µM | ≤ 10 µM
15 | CCn1ncc2cc(-c3cc(=O)n4ncc(-c5noc6ccccc56)c4[nH]3)ccc21 [Example 59, 3-(benzo[d]isoxazol-3-yl)-5-(1-ethyl-1H-indazol-5-yl)pyrazolo[1,5-a]pyrimidin-7(4H)-one] | ≤ 10 µM | ≤ 10 µM | ≤ 10 µM | ≤ 10 µM
16 | COc1cc(-c2cc(=O)n3ncc(-c4ncc(C)s4)c3[nH]2)ccc1Cl [Example 56, 5-(4-chloro-3-methoxyphenyl)-3-(5-methylthiazol-2-yl)pyrazolo[1,5-a]pyrimidin-7(4H)-one] | ≤ 10 µM | ≤ 10 µM | ≤ 10 µM | ≤ 10 µM
17 | Cc1cnc(-c2cnn3c(=O)cc(-c4ccc5[nH]nnc5c4)[nH]c23)o1 [Example 5, 5-(1H-1,2,3-benzotriazol-5-yl)-3-(5-methyl-1,3-oxazol-2-yl)-4H,7H-pyrazolo[1,5-a]pyrimidin-7-one] | ≤ 10 µM | ≤ 10 µM | ≤ 10 µM | ≤ 10 µM
18 | O=c1cc(-c2ccc(Cl)c(Cl)c2)[nH]c2c(-c3cc[nH]n3)cnn12 [Example 70, 5-(3,4-dichlorophenyl)-3-(1H-pyrazol-3-yl)pyrazolo[1,5-a]pyrimidin-7(4H)-one] | ≤ 10 µM | ≤ 10 µM | ≤ 10 µM | ≤ 10 µM
19 | CCn1nccc1-c1cnn2c(=O)cc(-c3ccc(Cl)cc3)[nH]c12 [Example 66, 5-(4-chlorophenyl)-3-(1-ethyl-1H-pyrazol-5-yl)pyrazolo[1,5-a]pyrimidin-7(4H)-one] | ≤ 10 µM | ≤ 10 µM | ≤ 10 µM | ≤ 10 µM
20 | CCn1ncc2cc(-c3cc(=O)n4ncc(-c5c(C)cnn5C)c4[nH]3)ccc21 [Example 85, 3-(1,4-dimethyl-1H-pyrazol-5-yl)-5-(1-ethyl-1H-indazol-5-yl)-4H,7H-pyrazolo[1,5-a]pyrimidin-7-one] | ≤ 10 µM | ≤ 10 µM | ≤ 10 µM | ≤ 10 µM
21 | Cn1ncc2cc(-c3cc(=O)n4ncc(-c5ncco5)c4[nH]3)ccc21 [Example 73, 5-(1-methyl-1H-indazol-5-yl)-3-(oxazol-2-yl)-4H,7H-pyrazolo[1,5-a]pyrimidin-7-one] | ≤ 10 µM | ≤ 10 µM | ≤ 10 µM | ≤ 10 µM
22 | CCn1ncc2cc(-c3cc(=O)n4ncc(-c5ncc(-c6ccccc6)o5)c4[nH]3)ccc21 [Example 64, 5-(1-ethyl-1H-indazol-5-yl)-3-(5-phenyloxazol-2-yl)pyrazolo[1,5-a]pyrimidin-7(4H)-one] | ≤ 10 µM | ≤ 10 µM | ≤ 10 µM | ≤ 10 µM
